How the values were obtained:
[1] = tested on: L1210; experiment: In vitro cytotoxicity was measured after 4 hr of exposure against L1210 murine leukemia cells; format: functional, Mus musculus
[2] = tested on: L1210; experiment: In vitro cytotoxicity was measured after 48 hr of exposure against L1210 murine leukemia cells; format: functional, cell-based; settings: Mus musculus, L1210, 48 h
[3] = tested on: Mus musculus; experiment: In vivo antileukemic activity against L1210 murine leukemia in mice after iv administration of compound expressed as T/C ie median survival time of treated versus untreated mice (10); format: functional
[4] = tested on: Mus musculus; experiment: In vivo antileukemic activity against L1210 murine leukemia after intravenous administration in mice expressed as optimal (non toxic) dose; format: functional
[5] = tested on: Mus musculus; experiment: In vivo antileukemic activity against L1210 murine leukemia cell after intravenous administration in mice expressed as optimal (non toxic) dose; format: functional

Row | SMILES | IPol [1] [µM] | IC50 [2] [nM] | T/C [3] [%] | OD [5] [mg/kg] | further results
1 | Cl.Cn1cc(NC(=O)c2cc(NC(=O)c3cc(NC(=O)/C=C/Cl)cn3C)cn2C)cc1C(=O)NCCC(=N)N | >100 |  |  |  | 
2 | C=C(Br)CNc1cc(C(=O)Nc2cc(C(=O)Nc3cc(C(=O)NCCC(=N)N)n(C)c3)n(C)c2)n(C)c1 |  | > 1600 |  |  | 
3 | C=C(F)C(=O)Nc1cc(C(=O)Nc2cc(C(=O)Nc3cc(C(=O)Nc4cc(C(=O)NCCC(=N)N)n(C)c4)n(C)c3)n(C)c2)n(C)c1 |  | > 700 |  |  | 
4 | C=C(Br)C(=O)Nc1cc(C(=O)Nc2cc(C(=O)Nc3cc(C(=O)NCCC(=N)N)n(C)c3)n(C)c2)n(C)c1.Cl | 0.1035 |  | 100 |  | OD [4]: 12.5 mg/kg
5 | C=CC(=O)Nc1cc(C(=O)Nc2cc(C(=O)Nc3cc(C(=O)NCCC(=N)N)n(C)c3)n(C)c2)n(C)c1.Cl | >50 |  |  |  | 
6 | C=C(Cl)C(=O)Nc1cc(C(=O)Nc2cc(C(=O)Nc3cc(C(=O)NCCC(=N)N)n(C)c3)n(C)c2)n(C)c1.Cl | 1.47 |  | 117 | 12.5 | 
7 | C=C(Cl)C(=O)Nc1cc(C(=O)Nc2cc(C(=O)Nc3cc(C(=O)Nc4cc(C(=O)NCCC(=N)N)n(C)c4)n(C)c3)n(C)c2)n(C)c1.Cl |  | 3.8 | 133 | 1.56 | 
8 | C=C(F)C(=O)Nc1cc(C(=O)Nc2cc(C(=O)Nc3cc(C(=O)NCCC(=N)N)n(C)c3)n(C)c2)n(C)c1 |  | > 800 |  |  | 
9 | C=C(Br)C(=O)Nc1cc(C(=O)NCCC(=N)N)n(C)c1 |  | > 13000 |  |  | 
10 | C=C(Br)C(=O)Nc1cc(C(=O)Nc2cc(C(=O)Nc3cc(C(=O)Nc4cc(C(=O)NCCC(=N)N)n(C)c4)n(C)c3)n(C)c2)n(C)c1.Cl |  |  | 200 | 1.56 | 
11 | C=C(Br)C(=O)Nc1cc(C(=O)Nc2cc(C(=O)Nc3cc(C(=O)Nc4cc(C(=O)Nc5cc(C(=O)NCCC(=N)N)n(C)c5)n(C)c4)n(C)c3)n(C)c2)n(C)c1.Cl |  | 23 | 167 | 0.78 | 
12 | C=C(Br)C(=O)Nc1cc(C(=O)Nc2cc(C(=O)NCCC(=N)N)n(C)c2)n(C)c1 |  | > 1300 |  |  | 
13 | Cl.Cn1cc(NC(=O)c2cc(NC(=O)c3cc(NC(=O)/C=C\Cl)cn3C)cn2C)cc1C(=O)NCCC(=N)N | >50 |  |  |  | 

Source: ChEMBL document CHEMBL1132911, “Cytotoxic halogenoacrylic derivatives of distamycin A” (Bioorg Med Chem Lett, 2000)
